Publication PMC3929320 (Journal of medicinal chemistry, 2010)

Key:
[1] = molecular target: T1, human kynurenine aminotransferase II (hKAT II) (Homo sapiens, UniProt Q8N5Z0); assay: recombinant enzyme assay, L-KYN to KYNA conversion by HPLC; assay type: biochemical
Target sequence in this assay (Q8N5Z0 whole entry): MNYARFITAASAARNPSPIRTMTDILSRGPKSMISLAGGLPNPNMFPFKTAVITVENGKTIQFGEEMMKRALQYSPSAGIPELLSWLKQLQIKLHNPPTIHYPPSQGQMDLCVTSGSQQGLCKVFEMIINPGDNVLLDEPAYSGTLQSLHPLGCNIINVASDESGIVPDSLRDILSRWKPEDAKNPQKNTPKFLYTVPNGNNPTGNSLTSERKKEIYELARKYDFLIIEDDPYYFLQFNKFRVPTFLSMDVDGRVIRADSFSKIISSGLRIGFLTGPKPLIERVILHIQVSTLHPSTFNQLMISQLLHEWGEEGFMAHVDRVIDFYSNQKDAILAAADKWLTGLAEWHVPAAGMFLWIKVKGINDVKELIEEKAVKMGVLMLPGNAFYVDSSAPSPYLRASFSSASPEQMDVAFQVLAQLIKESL

[2] = molecular target: T1, human kynurenine aminotransferase II (hKAT II); assay: X-ray crystal structure at […] Å; assay type: biochemical
Target sequence in this assay (Q8N5Z0 2-425): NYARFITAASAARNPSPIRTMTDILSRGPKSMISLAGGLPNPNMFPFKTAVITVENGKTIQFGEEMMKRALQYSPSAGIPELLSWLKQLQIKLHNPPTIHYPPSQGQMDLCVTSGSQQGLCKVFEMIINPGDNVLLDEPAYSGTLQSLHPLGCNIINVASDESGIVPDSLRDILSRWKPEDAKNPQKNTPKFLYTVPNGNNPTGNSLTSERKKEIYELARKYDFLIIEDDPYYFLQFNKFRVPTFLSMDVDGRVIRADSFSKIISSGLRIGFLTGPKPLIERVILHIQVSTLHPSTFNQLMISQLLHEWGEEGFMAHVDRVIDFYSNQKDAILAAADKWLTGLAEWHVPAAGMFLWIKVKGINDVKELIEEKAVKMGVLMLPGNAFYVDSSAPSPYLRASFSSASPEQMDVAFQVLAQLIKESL

## C[C@@H]1COc2c(N3CCN(N)CC3)c(F)cc3c(=O)c(C(=O)O)cn1c23 [1*, 1* (stereoisomer of BFF-122)]
[1]
  IC50: 0.91 and 1.5 (two enantiomers) μM

## C[C@H]1COc2c(N3CCN(N)CC3)c(F)cc3c(=O)c(C(=O)O)cn1c23 [compound 1, (S)-(−)-9-(4-aminopiperazin-1-yl)-8-fluoro-3-methyl-6-oxo-2,3-dihydro-6H-1-oxa-3a-azaphenalene-5-carboxylic acid]
[2]
  IC50: 0.91 and 1.5 (two enantiomers) μM
